Like-named read-outs stand apart in the source and are kept apart here.
Key:
Type in all cases: biochemical
K-Ras G13C = K-Ras G13C (Homo sapiens (Human), UniProt P01116+P62937, G13C); assay: Ras-Raf (BRAF RBD) disruption / FRET / MOA assay, KRAS G13C; settings: KRAS G13C; Ras-Raf disruption/FRET/MOA assay; read-out: IC50* KRAS G13C FRET data
Method in brief: (§1)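 Ras:RAF disruption was scored as a fall in TR-FRET ratio relative to DMSO. Compound ranged in 3-fold steps over 10 points from 30 μM final; incubation ran 3 h at 25° C, detection antibodies a further 1.5 h. Reported as IC50.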

KRAS G12S = KRAS G12S (Homo sapiens (Human), UniProt P01116+P62937, G12S); assay: Ras-Raf (BRAF RBD) disruption / FRET / MOA assay, KRAS G12S; settings: Ras-Raf disruption/FRET/MOA assay; class symbols; read-out: KRAS G12S FRET data IC50
Method in brief: as §1

KRAS G12D = KRAS G12D (Homo sapiens (Human), UniProt P01116+P62937, G12D); assay: Ras-Raf (BRAF RBD) disruption / FRET / MOA assay, KRAS G12D; settings: Ras-Raf disruption/FRET/MOA assay; class symbols; read-out: KRAS G12D FRET data IC50
Method in brief: as §1

KRAS WT = KRAS WT (Homo sapiens (Human), UniProt P01116+P62937); assay: Ras-Raf (BRAF RBD) disruption / FRET / MOA assay, KRAS WT; settings: read-out: IC50* KRAS WT FRET data
Method in brief: as §1

KRAS G13D = KRAS G13D (Homo sapiens (Human), UniProt P01116+P62937, G13D); assay: Ras-Raf (BRAF RBD) disruption / FRET / MOA assay, KRAS G13D
Method in brief: as §1

KRAS Q61H = KRAS Q61H (Homo sapiens (Human), UniProt P01116+P62937, Q61H); assay: Ras-Raf (BRAF RBD) disruption / FRET / MOA assay, KRAS Q61H; settings: Ras-Raf disruption/FRET/MOA assay; class symbols; read-out: KRAS Q61H FRET data IC50
Method in brief: (§2)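 TR-FRET disruption of nucleotide-loaded Ras binding to BRAF RBD via compound-driven ternary complex with cyclophilin A. Compound as 10-point 3-fold series from 30 μM final, 3 h at 25° C, then anti-His Eu-W1024 (10 nM) and anti-GST allophycocyanin (50 nM) for 1.5 h. IC50 from decreased FRET ratio versus DMSO.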

NRAS Q61K = NRAS Q61K (Homo sapiens (Human), UniProt P01111+P62937, Q61K); assay: Ras-Raf (BRAF RBD) disruption / FRET / MOA assay, NRAS Q61K; settings: NRAS Q61K; Ras-Raf disruption/FRET/MOA assay; read-out: IC50* NRAS Q61K FRET data
Method in brief: as §2

[1] = read-out: IC50* KRAS G13D FRET data

Sequence of KRAS G13D (P01116-2 other isoform, or with tags, fused parts or gaps G13D): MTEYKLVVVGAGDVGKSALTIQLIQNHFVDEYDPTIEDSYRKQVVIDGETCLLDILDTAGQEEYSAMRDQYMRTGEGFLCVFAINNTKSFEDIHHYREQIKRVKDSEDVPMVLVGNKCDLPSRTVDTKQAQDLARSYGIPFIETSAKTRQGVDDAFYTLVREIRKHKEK
Sequence of KRAS G13D (P62937 whole entry): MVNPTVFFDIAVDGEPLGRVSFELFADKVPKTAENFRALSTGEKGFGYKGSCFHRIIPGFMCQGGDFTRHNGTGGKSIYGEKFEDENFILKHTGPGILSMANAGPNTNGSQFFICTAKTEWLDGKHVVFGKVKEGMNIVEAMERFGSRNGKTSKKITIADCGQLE
Sequence of KRAS G12D (P01116-2 other isoform, or with tags, fused parts or gaps G12D): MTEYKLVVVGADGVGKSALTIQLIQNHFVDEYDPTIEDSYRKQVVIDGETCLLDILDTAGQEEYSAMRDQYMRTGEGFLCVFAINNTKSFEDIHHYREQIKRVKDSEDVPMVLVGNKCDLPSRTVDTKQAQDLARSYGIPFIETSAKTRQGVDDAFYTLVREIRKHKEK
Sequence of KRAS G12D (P62937 whole entry): as the sequence (P62937 whole entry) above
Sequence of NRAS Q61K (P01111 whole entry Q61K): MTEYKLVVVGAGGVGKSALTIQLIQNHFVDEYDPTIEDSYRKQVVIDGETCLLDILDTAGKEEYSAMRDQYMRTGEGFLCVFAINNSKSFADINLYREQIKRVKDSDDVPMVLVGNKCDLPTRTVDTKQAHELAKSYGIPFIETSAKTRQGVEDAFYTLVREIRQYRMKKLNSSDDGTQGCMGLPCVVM
Sequence of NRAS Q61K (P62937 whole entry): as the sequence (P62937 whole entry) above
Sequence of K-Ras G13C (P01116-2 other isoform, or with tags, fused parts or gaps G13C): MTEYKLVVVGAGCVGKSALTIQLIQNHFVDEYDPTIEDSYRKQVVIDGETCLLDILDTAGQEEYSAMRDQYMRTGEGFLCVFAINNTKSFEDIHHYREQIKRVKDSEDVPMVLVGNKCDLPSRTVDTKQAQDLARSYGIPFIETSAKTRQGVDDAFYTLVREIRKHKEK
Sequence of K-Ras G13C (P62937 whole entry): as the sequence (P62937 whole entry) above
Sequence of KRAS Q61H (P01116-2 other isoform, or with tags, fused parts or gaps Q61H): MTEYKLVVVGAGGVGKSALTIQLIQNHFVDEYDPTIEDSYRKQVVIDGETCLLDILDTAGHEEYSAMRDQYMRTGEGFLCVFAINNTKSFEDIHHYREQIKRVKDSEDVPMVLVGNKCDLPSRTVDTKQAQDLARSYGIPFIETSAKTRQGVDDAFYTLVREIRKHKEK
Sequence of KRAS Q61H (P62937 whole entry): as the sequence (P62937 whole entry) above
Sequence of KRAS WT (P01116-2 other isoform, or with tags, fused parts or gaps): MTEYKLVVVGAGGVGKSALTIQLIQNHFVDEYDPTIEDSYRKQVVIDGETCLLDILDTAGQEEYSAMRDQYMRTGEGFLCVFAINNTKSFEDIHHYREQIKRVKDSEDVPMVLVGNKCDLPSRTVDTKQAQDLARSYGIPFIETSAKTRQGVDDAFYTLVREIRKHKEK
Sequence of KRAS WT (P62937 whole entry): as the sequence (P62937 whole entry) above
Sequence of KRAS G12S (P01116-2 other isoform, or with tags, fused parts or gaps G12S): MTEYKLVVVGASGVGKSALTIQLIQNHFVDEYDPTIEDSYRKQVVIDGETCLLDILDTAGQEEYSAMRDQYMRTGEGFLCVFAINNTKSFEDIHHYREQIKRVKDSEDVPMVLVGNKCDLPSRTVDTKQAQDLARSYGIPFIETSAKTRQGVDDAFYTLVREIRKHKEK
Sequence of KRAS G12S (P62937 whole entry): as the sequence (P62937 whole entry) above

| SMILES | IC50 (K-Ras G13C) | IC50 (KRAS G12S) | IC50 (KRAS G12D) | IC50 (KRAS WT) | IC50 (KRAS G13D; [1]) | IC50 (KRAS Q61H) | IC50 (NRAS Q61K) | IC50 (KRAS G13D; IC50* KRAS G13D FRET data) |
| --- | --- | --- | --- | --- | --- | --- | --- | --- |
| CO[C@@H](C)c1ncccc1-c1c2c3cc(ccc3n1CC(F)(F)F)-c1nc(ns1)C[C@H](NC(=O)[C@@H](COC1CN(C(=O)C#CC(C)(C)N(C)C)C1)C(C)C)C(=O)N1CCC[C@H](N1)C(=O)OCC(C)(C)C2 (atropisomer, axis not shown) [Example A590, (2R)-2-(((1-(4-(dimethylamino)-4-methylpent-2-ynoyl)azetidin-3-yl)oxy)methyl)-N-((6^3S,4S,Z)-1^2-(2-((S)-1-methoxyethyl)pyridin-3-yl)-10,10-dimethyl-5,7-dioxo-1^1-(2,2,2-trifluoroethyl)-6^1,6^2,6^3,6^4,6^5,6^6-hexahydro-1^1H-8-oxa-2(5,3)-thiadiazola-1(5,3)-indola-6(1,3)-pyridazinacycloundecaphane-4-yl)-3-methylbutanamide] | 1000 to 10000 nM | 1000 to 10000 nM | > 10000 nM | 1000 to 10000 nM | > 10000 nM | 1000 to 10000 nM | 1000 to 10000 nM |  |
| C=CC(=O)N1CCO[C@@]2(CCN(C(=O)N(C)[C@H](C(=O)N[C@H]3Cc4nc(cs4)-c4ccc5c(c4)c(c(-c4cccnc4[C@H](C)OC)n5CC(F)(F)F)CC(C)(C)COC(=O)[C@@H]4CCCN(N4)C3=O)C(C)C)C2)C1 (atropisomer, axis not shown) [Example A594] | 10 to 100 nM | 100 to 1000 nM | 100 to 1000 nM | 10 to 100 nM |  | 10 to 100 nM | 10 to 100 nM | 100 to 1000 nM |
| C=CC(=O)N1CCO[C@H]2CN(C(=O)N(C)[C@H](C(=O)N[C@H]3Cc4cccc(n4)-c4ccc5c(c4)c(c(-c4cccnc4[C@H](C)OC)n5CC(F)(F)F)CC(C)(C)COC(=O)[C@@H]4CCCN(N4)C3=O)C(C)C)C[C@H]21 (atropisomer, axis not shown) [Example A595] | 10 to 100 nM | 1000 to 10000 nM | 1000 to 10000 nM | 100 to 1000 nM | 1000 to 10000 nM | 100 to 1000 nM | 100 to 1000 nM |  |
| C=CC(=O)N1CCO[C@H]2CN(C(=O)N(C)[C@H](C(=O)N[C@H]3Cc4cccc(n4)-c4ccc5c(c4)c(c(-c4cccnc4[C@H](C)OC)n5CC)CC(C)(C)COC(=O)[C@@H]4CCCN(N4)C3=O)C(C)C)C[C@H]21 (atropisomer, axis not shown) [Example A597] | 10 to 100 nM | 1000 to 10000 nM | > 10000 nM | 1000 to 10000 nM | 1000 to 10000 nM | 100 to 1000 nM | 100 to 1000 nM |  |
| C=CC(=O)N1CCO[C@H]2CN(C(=O)N(C)[C@H](C(=O)N[C@H]3Cc4cccc(c4)-c4ccc5c(c4)c(c(-c4cccnc4[C@H](C)OC)n5CC)CC(C)(C)COC(=O)[C@@H]4CCCN(N4)C3=O)C(C)C)C[C@H]21 (atropisomer, axis not shown) [Example A610] | 10 to 100 nM | 1000 to 10000 nM | 1000 to 10000 nM | 100 to 1000 nM | 1000 to 10000 nM | 100 to 1000 nM | 100 to 1000 nM |  |
| C=CC(=O)N1CC2(CCN2C(=O)N(C)[C@H](C(=O)N[C@H]2Cc3nc(n(C)n3)-c3ccc4c(c3)c(c(-c3cccnc3[C@H](C)OC)n4CC)CC(C)(C)COC(=O)[C@@H]3CCCN(N3)C2=O)C(C)C)C1 (atropisomer, axis not shown) [Example A612] | 100 to 1000 nM | 100 to 1000 nM | 100 to 1000 nM | 100 to 1000 nM | 100 to 1000 nM | 10 to 100 nM | 10 to 100 nM |  |
| CCn1c(-c2cccnc2[C@H](C)OC)c2c3cc(ccc31)N1CCC[C@@H](C[C@H](NC(=O)[C@H](C(C)C)N(C)C(=O)C3(F)CCN(C(=O)C#CC(C)(C)N(C)C)CC3)C(=O)N3CCC[C@H](N3)C(=O)OCC(C)(C)C2)C1 (atropisomer, axis not shown) [Example A615] | > 10000 nM | > 10000 nM | > 10000 nM | > 10000 nM | > 10000 nM | > 10000 nM | > 10000 nM |  |
| C=CC(=O)N(C)CCC1CCN(C(=O)N(C)[C@H](C(=O)N[C@H]2Cc3nc(cs3)-c3ccc4c(c3)c(c(-c3cccnc3[C@H](C)OC)n4CC)CC(C)(C)COC(=O)[C@@H]3CCCN(N3)C2=O)C(C)C)CC1 (atropisomer, axis not shown) [Example A621] | 10 to 100 nM | 10 to 100 nM | 100 to 1000 nM | 10 to 100 nM | 100 to 1000 nM | < 10 nM | 10 to 100 nM |  |

— patent US11566007B2, “Ras inhibitors” (Revolution Medicines, Inc., priority 2019, dated 2023)
